From patent US20030068615A1, “Polypeptides that bind HIV gp120 and related nucleic acids, antibodies, compositions, and methods of use” (priority 1999, published 2003)
“And” between values parts separate entries of the source, which are not always exact repeats. Equal entries are not always repeated. Where two headings read alike, the source gives them in different places.

Target: HIV-1LAI envelope gp120 (Human immunodeficiency virus type 1 group M subtype B, UniProt P03377)
Format: binding
Details: for Binding Results For Window Length (counts bound-background), 9 / Binding Results For Window Length (counts bound-background), 12 / Binding Results For Window Length (counts bound-background), 15 / Binding Results For Window Length (counts bound-background), 18: STRL33 amino terminus; for Binding Results For Window Length (counts bound-background), 9: 9-mer starting at the first residue of the printed sequence; for Binding Results For Window Length (counts bound-background), 12: 12-mer starting at the first residue of the printed sequence; for Counts per 20′ Average-background: CCR5 18-mer scan, radiolabeled HIV-1LAI gp120; for Relative % of Control: mean of two syntheses and binding experiments ± average deviation, wild-type = 100%; for Binding Results For Window Length (counts bound-background), 15: 15-mer starting at the first residue of the printed sequence; for Binding Results For Window Length (counts bound-background), 18: 18-mer starting at the first residue of the printed sequence; for number of radioactive decays (counts) counted: human CD4 21-mer scan, empty control 2075
[1] = Panel A, 21-mers of CD4, empty control 515 and 617
[2] = Panel E, 9-mers and 12-mers of CD4, empty control 571
[3] = Panel B, 15-mers and 18-mers of CD4, empty control 575
[4] = CXCR4 18-mer scan, background subtracted, empty control 0
[5] = CXCR4 18-mer scan, empty control 412
[6] = Panel D, 9-mers and 12-mers of CD4, empty control […]
[7] = Panel C, 15-mers and 18-mers of CD4, empty control 556
[8] = STRL33 18-mer scan, background subtracted, first of two count columns
[9] = STRL33 18-mer scan, background subtracted, second of two count columns
[10] = Panel F, sequential alanine replacements of CD4 polypeptides, duplicate series, empty control 569
[11] = Panel G, alanine replacements and serial truncations (Z) of CD4 polypeptides, empty control 580

## SQEEHQAFLQFS
Background subtracted
  Binding Results For Window Length (counts bound-background), 9: 647 counts
  Binding Results For Window Length (counts bound-background), 12: 7512 counts

## YKKEGEQVEFSFPLAFTVEKL
[1]
  COUNTS of radiolabeled gp120 retained: 735 counts

## YKKEGEQVEFSF
[2]
  COUNTS of radiolabeled gp120 retained: 548 counts

## QAMQVTETLGMTHCCINP [CCR5 segment 277-]
Background subtracted
  Counts per 20′ Average-background: 81 counts per 20′

## LIIKNLKIEDSDTYI
[3]
  COUNTS of radiolabeled gp120 retained: 542 counts

## ICEVEDQKEEVQLLVFGL
[3]
  COUNTS of radiolabeled gp120 retained: 3898 counts

## MEGISIYTSDNYAEEMGS
CXCR4 (1-18) alanine variants
  Relative % of Control: 70 ± 6%

## ILPGIVILSCYCIIISKL [CXCR4 segment 209-226]
[4]
  radioactive counts recorded in twenty minutes: 192 counts
[5]
  radioactive counts recorded in twenty minutes: 604 counts

## IKNLKIEDSDTY
[6]
  COUNTS of radiolabeled gp120 retained: 574 counts

## QKASSIVYKKEGEQV
[7]
  COUNTS of radiolabeled gp120 retained: 519 counts

## DSDTYICEVEDQKEEVQL
[3]
  COUNTS of radiolabeled gp120 retained: 961 counts

## KNFWKLVKDIGCLPYLGV [STRL33 segment 297-314]
[8]
  radioactive counts recorded in twenty minutes: 143.5 counts
[9]
  radioactive counts recorded in twenty minutes: 82.5 counts

## LKIEDSDTYICEVED
[3]
  COUNTS of radiolabeled gp120 retained: 846 counts

## SFWDSSQEEEQAFLQFSK
Background subtracted
  Binding Results For Window Length (counts bound-background), 9: 304 counts
  Binding Results For Window Length (counts bound-background), 12: 303 counts
  Binding Results For Window Length (counts bound-background), 15: 969 counts
  Binding Results For Window Length (counts bound-background), 18: 4537 counts

## AFQKASSIVYKK
[2]
  COUNTS of radiolabeled gp120 retained: 597 counts

## IVYKKEGEQ
[2]
  COUNTS of radiolabeled gp120 retained: 534 counts

## EDSDTYICEVEDQKE
[3]
  COUNTS of radiolabeled gp120 retained: 815 counts

## GNTMCQLLTGLYFIGFFS [CCR5 segment 97-]
Background subtracted
  Counts per 20′ Average-background: 941 counts per 20′

## CEVEDQKEEVQLLVFGLT
[3]
  COUNTS of radiolabeled gp120 retained: 3797 counts

## AHLLQGQSLTLTLES
[10]
  COUNTS of radiolabeled gp120 retained: 8602 counts and 5826 counts

## VKQIAARLLPPLYSLVFI [CCR5 segment 25-42]
Background subtracted
  Counts per 20′ Average-background: 18 counts per 20′

## AFTVEKLTGSGE
[2]
  COUNTS of radiolabeled gp120 retained: 511 counts

## FSGIFFIILLTIDRYLAV [CCR5 segment 113-]
Background subtracted
  Counts per 20′ Average-background: 83 counts per 20′

## IVYKKEGEQVEFSFPLAF
[7]
  COUNTS of radiolabeled gp120 retained: 5382 counts

## LAFQKASSI
[2]
  COUNTS of radiolabeled gp120 retained: 592 counts

## GEQVEFSFP
[2]
  COUNTS of radiolabeled gp120 retained: 697 counts

## IVLLLNTFQEFFGLNNCS
Background subtracted
  Counts per 20′ Average-background: 2134 counts per 20′

## HLLQGQSLTLTL
[6]
  COUNTS of radiolabeled gp120 retained: 701 counts

## IKNLKIEDSDTYICEVED
[3]
  COUNTS of radiolabeled gp120 retained: 699 counts

## LMKFIRSTHWEYYAMTSF [STRL33 segment 249-266]
[8]
  radioactive counts recorded in twenty minutes: 934.5 counts
[9]
  radioactive counts recorded in twenty minutes: 949.5 counts

## LLVFGLTANSDTHLLQGQ
[3]
  COUNTS of radiolabeled gp120 retained: 568 counts

## GEQAEFSFPLAFTVE
[11]
  COUNTS of radiolabeled gp120 retained: 14764 counts and 13000 counts

## GEQVEFSFPAAFTVE
[11]
  COUNTS of radiolabeled gp120 retained: 10024 counts and 10589 counts

## LQNQKKVEF
[2]
  COUNTS of radiolabeled gp120 retained: 565 counts

## YSSVLILAFISLDRYLAI
[4]
  radioactive counts recorded in twenty minutes: 157 counts
[5]
  radioactive counts recorded in twenty minutes: 569 counts

## NSDTHLLQGQSL
[6]
  COUNTS of radiolabeled gp120 retained: 585 counts

## FPLIIKNLKIED
[6]
  COUNTS of radiolabeled gp120 retained: 511 counts

## VLQNQKKVEFKIDIVVLA
[7]
  COUNTS of radiolabeled gp120 retained: 724 counts

## SIFQQEAPERASSVYTRS [CCR5 segment 325-]
Background subtracted
  Counts per 20′ Average-background: 100 counts per 20′

## VEFSFPLAF
[2]
  COUNTS of radiolabeled gp120 retained: 1064 counts

## HEDYGFSSFNDSSQEEHQ
Background subtracted
  Binding Results For Window Length (counts bound-background), 9: 729 counts
  Binding Results For Window Length (counts bound-background), 12: 1077 counts
  Binding Results For Window Length (counts bound-background), 15: 947 counts
  Binding Results For Window Length (counts bound-background), 18: 537 counts

## FSFPLAFTVEKLTGS
[7]
  COUNTS of radiolabeled gp120 retained: 672 counts

## KLQSLTDVFLVNLPLADL [STRL33 segment 61-78]
[8]
  radioactive counts recorded in twenty minutes: 412.5 counts
[9]
  radioactive counts recorded in twenty minutes: 348.5 counts

## TGSGELWWQ
[2]
  COUNTS of radiolabeled gp120 retained: 507 counts

## PKLMLSLKLENKEAKVSKREK [human CD4 336-356]
  number of radioactive decays (counts) counted: 1656 counts

## YKKEGEQVEFSFPLAFTV
[7]
  COUNTS of radiolabeled gp120 retained: 4839 counts

## MAYQVSSPIYDINYYTSE [CCR5 (1-18) variant D2A]
CCR5 (1-18) alanine variants
  Relative % of Control: 125 ± 8%

## AEQVEFSFPLAFTVE
[11]
  COUNTS of radiolabeled gp120 retained: 18042 counts and 18546 counts

## GEQVEFSFPLAFTVEKLT
[7]
  COUNTS of radiolabeled gp120 retained: 1643 counts

## GVSNQWKSSEDNSKTFSA [STRL33 segment 313-330]
[8]
  radioactive counts recorded in twenty minutes: 208.5 counts
[9]
  radioactive counts recorded in twenty minutes: 306.5 counts

## EGEQVEFSFPLAFTV
[7]
  COUNTS of radiolabeled gp120 retained: 3270 counts

## DQKEEVQLLVFG
[6]
  COUNTS of radiolabeled gp120 retained: 1624 counts

## ERASSVYTRSTGEQEISV [CCR5 segment 333-]
Background subtracted
  Counts per 20′ Average-background: 84 counts per 20′

## GQSLTLTLE
[6]
  COUNTS of radiolabeled gp120 retained: 777 counts

## QKHRSLKIIFLVMAVFLL [STRL33 segment 225-242]
[8]
  radioactive counts recorded in twenty minutes: 810.5 counts
[9]
  radioactive counts recorded in twenty minutes: 814.5 counts

## DQGNFPLIIKNLKIEDSD
[3]
  COUNTS of radiolabeled gp120 retained: 598 counts

## EQVEFSFPLAFTVEKLTG
[7]
  COUNTS of radiolabeled gp120 retained: 798 counts

## ITLPFWAVDAVANWYFGN [CXCR4 segment 89-106]
[4]
  radioactive counts recorded in twenty minutes: 130 counts
[5]
  radioactive counts recorded in twenty minutes: 542 counts

## VSSPIYDINYYTSEPCQK [CCR5 segment 5-22]
Background subtracted
  Counts per 20′ Average-background: 383 counts per 20′

## VQLLVFGLT
[6]
  COUNTS of radiolabeled gp120 retained: 815 counts

## LWDQGNFPLIIKNLK
[3]
  COUNTS of radiolabeled gp120 retained: 502 counts

## KKVEFKIDIVVLAFQ
[7]
  COUNTS of radiolabeled gp120 retained: 951 counts

## QKEEVQLLV
[6]
  COUNTS of radiolabeled gp120 retained: 636 counts

## WDQGNFPLIIKNLKI
[3]
  COUNTS of radiolabeled gp120 retained: 534 counts

## SFPLAFTVEKLTGSG
[7]
  COUNTS of radiolabeled gp120 retained: 565 counts

## QGQSLTLTL
[6]
  COUNTS of radiolabeled gp120 retained: 594 counts

## LLGIYTINFYTSMLILTC
[8]
  radioactive counts recorded in twenty minutes: 499.5 counts
[9]
  radioactive counts recorded in twenty minutes: 408.5 counts

## LQGQSLTLT
[6]
  COUNTS of radiolabeled gp120 retained: 501 counts

## ESNIKVLPTWSTPVQPMALIV [human CD4 381-401]
  number of radioactive decays (counts) counted: 1992 counts

## MPFNLMKFIRSTHWEYYA [STRL33 segment 245-262]
[8]
  radioactive counts recorded in twenty minutes: 2171.5 counts
[9]
  radioactive counts recorded in twenty minutes: 2182.5 counts

## LILAFISLDRYLAIVHAT
[4]
  radioactive counts recorded in twenty minutes: 107 counts
[5]
  radioactive counts recorded in twenty minutes: 519 counts

## EEAQLLVFGLTANSD
[10]
  COUNTS of radiolabeled gp120 retained: 18124 counts and 16296 counts

## QLLVFGLTANSDTHLLQG
[3]
  COUNTS of radiolabeled gp120 retained: 574 counts

## QGNFPLIIK
[6]
  COUNTS of radiolabeled gp120 retained: 508 counts

## QLLVFGLTANSDTHL
[3]
  COUNTS of radiolabeled gp120 retained: 865 counts

## QVEFSFPLLA
Active CD4 fragments: 9-, 12-, 15-, 18- and 21-mers, background not subtracted
  Gp120 Bound (counts): 1205 counts

## LIIKNLKIEDSD
[6]
  COUNTS of radiolabeled gp120 retained: 619 counts

## PLIIKNLKIEDSDTYICE
[3]
  COUNTS of radiolabeled gp120 retained: 624 counts

## HLLQGQSLTLTLESP
[3]
  COUNTS of radiolabeled gp120 retained: 1277 counts

## QVEFSFPLAFTVEKLTGSGEL
[1]
  COUNTS of radiolabeled gp120 retained: 741 counts

## FSFPLAFTVEKLTGSGEL
[7]
  COUNTS of radiolabeled gp120 retained: 613 counts

## VLAFQKASS
[2]
  COUNTS of radiolabeled gp120 retained: 466 counts

## QKASSIVYKKEG
[2]
  COUNTS of radiolabeled gp120 retained: 596 counts

## AFQKASSIVYKKEGE
[7]
  COUNTS of radiolabeled gp120 retained: 544 counts

## GEQVEFSFPLAFTAE
[11]
  COUNTS of radiolabeled gp120 retained: 18797 counts and 16765 counts

## WIPALLLTIPDFIFANVS
[4]
  radioactive counts recorded in twenty minutes: 182 counts
[5]
  radioactive counts recorded in twenty minutes: 594 counts
